Results from US20260263448A1, “CONTROLLED RELEASE INJECTABLE CARIPRAZINE FORMULATION” (Richter Gedeon Nyrt., priority 2021, published 2026).
In brackets after ≈: the same amount, converted by molar mass. Structures can show the parent of a compound that is named as a salt. Where two headings read alike, the source gives them in different places.

Test: Solubility at different pH values (37° C.)
Format: physicochemical
Conditions: for solubility: aqueous buffer, read-out: Solubility (average, mg/ml); for Solubility in the pH-range of human muscle and subcutaneous tissues: pH 6.8-7.5

solubility (pH = 3, 37° C.)	solubility (pH = 4.4, 37° C.)	solubility (pH = 6.8, 37° C.)	Solubility in the pH-range of human muscle and subcutaneous tissues	Solubility category (USP) (pH = 3, 37° C.)	Solubility category (USP) (pH = 4.4, 37° C.)	Solubility category (USP) (pH = 6.8, 37° C.)	Solubility (average, mg/ml) (pH = 7.4, 37° C.)	Solubility category (USP) (pH = 7.4, 37° C.)	solubility (pH = 4.5, 37° C.)	solubility (pH = 5.5, 37° C.)	solubility (pH = 7.5, 37° C.)	Solubility category (USP) (pH = 4.5, 37° C.)	Solubility category (USP) (pH = 5.5, 37° C.)	Solubility (average, mg/ml) (pH = 6.8, 37° C.)	Solubility category (USP) (pH = 7.5, 37° C.)	SMILES
0.204 mg/mL (≈ 477 µM)	0.357 mg/mL (≈ 835 µM)	0.0007 mg/mL (≈ 1.64 µM)	practically insoluble	Very slightly soluble	Very slightly soluble	Practically insoluble	not detectable	Practically insoluble	–	–	–	–	–	–	–	CN(C)C(=O)N[C@H]1CC[C@H](CCN2CCN(c3cccc(Cl)c3Cl)CC2)CC1 [Cariprazine base, trans-N-{4-[2-[4-(2,3-dichlorophenyl)-piperazin-1-yl]-ethyl]-cyclohexyl}-N′,N′-dimethylurea]
6 mg/mL	–	–	practically insoluble	Slightly soluble	–	Practically insoluble	–	–	13.8 mg/mL	0.27 mg/mL	0.001 mg/mL	Sparingly soluble	Very slightly soluble	0.005 mg/mL	Practically insoluble	CN(C)C(=O)N[C@H]1CC[C@H](CCN2CCN(c3cccc(Cl)c3Cl)CC2)CC1 [Cariprazine hydrochloride]
